Measured values from ChEMBL document CHEMBL5576134, “Targeting Pancreatic Cancer with Novel Nicolaioidesin C Derivatives: Molecular Mechanism, In Vitro, and In Vivo Evaluations” (J Med Chem, 2024).
Active and inactive are the calls of the source. The calls are words filed in the database; no cut-off is given here.

Key:
MIA PaCa-2 [1] = assay: Preferential cytotoxicity against human MIA PaCa-2 cells in nutrient-deprived medium measured after 24 hrs by WST-8 cell counting analysis; assay type: functional
MIA PaCa-2 [2] = assay: Preferential cytotoxicity against human MIA PaCa-2 cells in DMEM measured after 24 hrs by WST-8 cell counting analysis; assay type: functional, cell-based; settings: MIA PaCa-2, 24 h
[3] = Selectivity index, ratio of IC50 for preferential cytotoxicity against human MIA PaCa-2 cells in DMEM to PC50 for preferential cytotoxicity against human MIA PaCa-2 cells in nutrient-deprived medium; assay type: functional
PANC-1 [4] = assay: Preferential cytotoxicity against human PANC-1 cells in nutrient-deprived medium measured after 24 hrs by WST-8 cell counting analysis; assay type: functional
PANC-1 [5] = assay: Preferential cytotoxicity against human PANC-1 cells in DMEM measured after 24 hrs by WST-8 cell counting analysis; assay type: functional, cell-based; settings: PANC-1, 24 h
[6] = Selectivity index, ratio of IC50 for preferential cytotoxicity against human PANC-1 cells in DMEM to PC50 for preferential cytotoxicity against human PANC-1 cells in nutrient-deprived medium; assay type: functional
[7] = Toxicity in BALB/c/Nu/Nu mouse xenografted with human MIA PaCa-2 cells assessed as change in body weight at 60 mg/kg, ip administered 5 times a week for 4 weeks; assay type: organism-based; settings: in vivo, 672 h
MIA PaCa-2 [8] = assay: Antitumor activity against human MIA PaCa-2 cells xenografted in BALB/c/Nu/Nu mouse assessed as tumor volume at 60 mg/kg, ip administered 5 times a week for 4 weeks and measured on day 32 (reference value: 1417 mm3); assay type: functional; settings: time 32 day
MIA PaCa-2 [9] = assay: Antitumor activity against human MIA PaCa-2 cells xenografted in BALB/c/Nu/Nu mouse assessed as reduction in final tumor weight at 60 mg/kg, ip administered 5 times a week for 4 weeks (reference value: […]); assay type: functional
MIA PaCa-2 [10] = assay: Antitumor activity against human MIA PaCa-2 cells xenografted in BALB/c/Nu/Nu mouse assessed as reduction in number of blood vessels in skin at 60 mg/kg, ip administered 5 times a week for 4 weeks; assay type: functional, organism-based

Compound | PC50 (MIA PaCa-2 [1]) [µM] | IC50 (MIA PaCa-2 [2]) [µM] | Selectivity Index [3] | PC50 (PANC-1 [4]) [µM] | IC50 (PANC-1 [5]) [µM] | Selectivity Index [6] | Activity [7] | Activity (MIA PaCa-2 [8]) [mm3] | Activity (MIA PaCa-2 [9]) [mg] | Activity (MIA PaCa-2 [10])
COc1cc(O)c(C(=O)[C@H]2CC=C(CCC=C(C)C)C[C@@H]2c2c(F)cccc2F)c(O)c1 (relative stereo) | 1.54 | 26.3 | 17 | 1.49 | 19.4 | 13 | – | – | – | –
COc1cc(O)c(C(=O)[C@H]2CC=C(CCC=C(C)C)C[C@@H]2c2ccc(C)cc2)c(O)c1 (relative stereo) | 3.65 | 93.3 | 25.5 | 0.56 | > 100 | – | – | – | – | –
CC(C)=CCCC1=CC[C@H](C(=O)c2c(O)cccc2O)[C@@H](c2ccc(Cl)cc2Cl)C1 (relative stereo) | 0.78 | 22.2 | 28.6 | 0.43 | 10 | 23.5 | – | – | – | –
COc1ccc([C@H]2CC(CCC=C(C)C)=CC[C@@H]2C(=O)c2c(O)cccc2O)cc1 (relative stereo) | 4.73 | > 100 | – | 1.08 | 56.7 | 52.8 | – | – | – | –
CC(C)=CCCC1=CC[C@H](C(=O)c2c(O)cccc2O)[C@@H](c2ccc(F)c(F)c2)C1 (relative stereo) | 0.68 | 23.1 | 33.8 | 0.33 | 11 | 33.5 | – | – | – | –
CC(C)=CCCC1=CC[C@H](C(=O)c2c(O)cccc2O)[C@@H](c2ccccc2)C1 (relative stereo) | 1.79 | 58.2 | 32.5 | 0.4 | 47.2 | 117 | – | – | – | –
CC(C)=CCCC1=CC[C@H](C(=O)c2c(O)cccc2O)[C@@H](c2ccccc2F)C1 (relative stereo) | 0.84 | 25 | 29.6 | 0.47 | 13.8 | 29.5 | – | – | – | –
COc1cc(O)c(C(=O)[C@H]2CC=C(CCC=C(C)C)C[C@@H]2c2ccc(Cl)cc2)c(O)c1 (relative stereo) | 3.02 | 71.9 | 23.8 | 0.41 | 39.1 | 94.5 | – | – | – | –
CC(C)=CCCC1=CC[C@H](C(=O)c2c(O)cccc2O)[C@@H](c2cc(F)cc(F)c2)C1 (relative stereo) | 0.75 | 19.7 | 26.2 | 0.33 | 10.5 | 31.6 | – | – | – | –
CC(C)=CCCC1=CC[C@H](C(=O)c2c(O)cccc2O)[C@@H](c2ccc(F)cc2F)C1 (relative stereo) | 0.34 | 11.1 | 32.6 | 0.27 | 7.18 | 26.1 | – | – | – | –
COc1cccc(OC)c1C(=O)[C@H]1CC=C(CCC=C(C)C)C[C@@H]1c1ccccc1 (relative stereo) | 13.6 | > 100 | – | 1.66 | 40 | 24.1 | – | – | – | –
COc1cc(O)c(C(=O)[C@H]2CC=C(CCC=C(C)C)C[C@@H]2c2ccc(F)cc2)c(O)c1 (relative stereo) | 1.01 | > 100 | – | 0.39 | > 100 | – | – | – | – | –
COc1cc(O)c(C(=O)[C@H]2CC=C(CCC=C(C)C)C[C@@H]2c2cc(F)cc(F)c2)c(O)c1 | 0.79 | 17.9 | 22.6 | 0.73 | 13.5 | 18.6 | – | – | – | –
COc1cc(O)c(C(=O)[C@H]2CC=C(CCC=C(C)C)C[C@@H]2c2ccc(F)c(F)c2)c(O)c1 (relative stereo) | 0.69 | 27.1 | 39.3 | 0.54 | 15.5 | 28.5 | – | – | – | –
CC(C)=CCCC1=CC[C@H](C(=O)c2c(O)cccc2O)[C@@H](c2ccc(Cl)cc2)C1 (relative stereo) | 1.3 | 32.6 | 25 | 0.68 | 86 | 126.8 | – | – | – | –
COc1cc(O)c(C(=O)[C@H]2CC=C(CCC=C(C)C)C[C@@H]2c2ccccc2F)c(O)c1 (relative stereo) | 0.85 | 33.7 | 39.6 | 0.72 | 28.5 | 39.3 | – | – | – | –

Compound | PC50 (MIA PaCa-2 [1]) [µM] | IC50 (MIA PaCa-2 [2]) [µM] | Selectivity Index [3] | PC50 (PANC-1 [4]) [µM] | IC50 (PANC-1 [5]) [µM] | Selectivity Index [6] | Activity [7] | Activity (MIA PaCa-2 [8]) [mm3] | Activity (MIA PaCa-2 [9]) [mg] | Activity (MIA PaCa-2 [10])
CC(C)=CCCC1=CC[C@H](C(=O)c2c(O)cccc2O)[C@@H](c2c(F)cccc2F)C1 (single isomer, unassigned) | 1.52 | 28.7 | 18.9 | 1.34 | 21.6 | 16.1 | – | – | – | –
COc1cc(O)c(C(=O)[C@H]2CC=C(CCC=C(C)C)C[C@@H]2c2ccccc2)c(O)c1 | 2.76 | 61.4 | 22.3 | 0.55 | 25.3 | 46.3 | – | – | – | –
CC(C)=CCCC1=CC[C@H](C(=O)c2c(O)cccc2O)[C@@H](c2cccc(Cl)c2)C1 (relative stereo) | 1.09 | 29.1 | 26.8 | 0.85 | 14.8 | 17.4 | – | – | – | –
CC(C)=CCCC1=CC[C@H](C(=O)c2c(O)cccc2O)[C@@H](c2cc(F)ccc2F)C1 (relative stereo) | 0.77 | 20.8 | 26.9 | 0.53 | 11.2 | 21.1 | – | – | – | –
Nc1ccn([C@@H]2O[C@H](CO)[C@@H](O)C2(F)F)c(=O)n1 [GEMCITABINE] | – | – | – | – | – | – | Non-Toxic | 632 | 227 | Active
CC(C)=CCCC1=CC[C@H](C(=O)c2c(O)cccc2O)[C@@H](c2ccccc2Cl)C1 (relative stereo) | 1.08 | 29 | 26.7 | 0.69 | 15.4 | 22.2 | – | – | – | –
COc1cccc(O)c1C(=O)[C@H]1CC=C(CCC=C(C)C)C[C@@H]1c1ccccc1 | 31.8 | > 100 | – | 3.3 | 33.9 | 10.3 | – | – | – | –
COc1cc(O)c(C(=O)[C@H]2CC=C(CCC=C(C)C)C[C@@H]2c2ccc(F)cc2F)c(O)c1 (relative stereo) | 0.63 | 20.2 | 32 | 0.97 | 21 | 21.6 | – | – | – | –
CC(C)=CCCC1=CC[C@H](C(=O)c2c(O)cccc2O)[C@@H](c2cccc(F)c2)C1 (relative stereo) | 1.23 | 30.8 | 25.1 | 1.43 | 16 | 11.2 | – | – | – | –
COc1ccc([C@H]2CC(CCC=C(C)C)=CC[C@@H]2C(=O)c2c(O)cc(OC)cc2O)cc1 (relative stereo) | 1.93 | 102 | 52.9 | 0.45 | 50 | 110 | – | – | – | –
COc1ccc(C(=O)[C@H]2CC=C(CCC=C(C)C)C[C@@H]2c2ccccc2)c(O)c1 (relative stereo) | 59.3 | > 100 | – | 7.32 | 24.2 | 3.3 | – | – | – | –
CC(C)=CCCC1=CC[C@H](C(=O)c2c(O)cccc2O)[C@@H](c2ccc(F)cc2)C1 (relative stereo) | 0.89 | 34.4 | 38.6 | 0.37 | > 100 | – | – | – | – | –
COc1cc(O)c(C(=O)[C@H]2CC=C(CCC=C(C)C)C[C@@H]2c2cccc(F)c2)c(O)c1 (relative stereo) | 1.21 | 39.9 | 32.9 | 1.16 | 29.6 | 25.6 | – | – | – | –
CC(C)=CCCC1=CC[C@H](C(=O)c2c(O)cccc2O)[C@@H](c2cccc(Cl)c2Cl)C1 (relative stereo) | 0.62 | 20.3 | 32.9 | 0.45 | 10.5 | 23.5 | – | – | – | –
COc1cc(O)c(C(=O)[C@H]2CC=C(CCC=C(C)C)C[C@@H]2c2cccc(F)c2F)c(O)c1 (relative stereo) | 1.01 | 33.8 | 33.4 | 0.64 | 24.4 | 38 | – | – | – | –
COc1cc(O)c(C(=O)[C@H]2CC=C(CCC=C(C)C)C[C@@H]2c2cc(F)ccc2F)c(O)c1 (relative stereo) | 0.81 | 26.6 | 32.7 | 0.5 | 17.1 | 34.4 | – | – | – | –
